{"source": "patent US6448239B1", "about": "“Peroxynitrite decomposition catalysts and methods of use thereof” (Trustees of Princeton University, priority 1999, dated 2002)", "key": {"plasmid pBR322": {"tested_on": "plasmid pBR322", "assay": "Cleavage of plasmid DNA with manganese pyridyl porphyrins, agarose gel", "settings": "1 mM Mn porphyrin, 50 μg/mL plasmid, 10 mM or 25 mM oxone, 5 min", "from_the_text": "Three forms of plasmid DNA are expected when Mn porphyrins interact with and cleave DNA, and they can be easily separated on an agarose gel. Uncleaved, supercoiled plasmid (Form I) will show the greatest mobility. In the event of a nick in the DNA, the supercoils will relax, and the open circular form of the plasmnid (Form II) will appear. Further oxidation will cleave the second strand of DNA as well, and leads to a linear form (Form III.) The relative electrophoretic mobilities are as follows: I>III>II.\nTwo concentrations of oxidant were used: 10 mM and 25 mM. All experiments were performed in 40 mM tris buffer+100 mM NaCl. […] Before reaction, porphyrin was allowed to incubate with plasmid for 30 min.\nA typical reaction was performed as follows: to a solution of 1 mM manganese porphyrin and 50 μg/mL plasmid in buffer was added enough oxone to make a final concentration of 10 mM or 25 mM. (Volume of the entire reaction was 20 μL.) The reaction mixture was vortexed, then allowed to react for 5 min. HEPES buffer (100 mM) was added to stop the reaction.\nEach sample was electrophoresed on a 1% agarose slab horizontal gel at 90V for 1 h at 24° C. in 40 mM tris-acetate (TAE) and 1 mM ETDA buffer. The agarose gel contained ethidium bromide (1 μg/mL) so that the lanes could be visualized by UV-vis, and the finished gel was photographed under UV illumination. Lanes 1-4 were run at 10 mM oxone, and lanes 5-8 were run at 25 mM oxone. The control lanes, C1 and C2, contained 10 mM and 25 mM oxone, respectively, but no porphyrin. […] The lane assignments include the following: lane 1: Mn 4-T(CX)PyP, lane 2: Mn 2-T(CX)PyP; lane 3, Mn 2-T(PEG3)PyP; lane 4: Mn 4-TMPyP; lane C1: plasmid+10 mM oxone; lane C2: Plasmid+25 mM oxone"}, "calf thymus DNA (CT-DNA)": {"tested_on": "calf thymus DNA (CT-DNA)", "assay": "Calf thymus-DNA titration (UV-visible spectrum)", "assay_type": "binding", "description": "A 5 μM solution of 4-T(CX)PyP was prepared in 10 mM tris buffer+1 mM EDTA (pH=8.0). To 2 mL of this solution in a quartz cuvette, 1 μL aliquots of a 1.89 mM solution of calf thymus DNA (CT-DNA) in 10 mM tris+1 mM EDTA were added. The concentration of CT-DNA was determined by UV-visible spectrum. After each addition, the cuvette was vortexed to ensure good mixing, and the UV-visible spectrum was recorded. […] Several intermediate spectra were omitted for clarity.\nThe porphyrin 2-T(CX)PyP was titrated in an analogous way to 4-T(CX)PyP, as described above. […] Presumably, the ortho carboxamide groups provide sufficient steric bulk to prevent association of the positively-charged pyridyl groups with the negatively-charged sugar phosphate backbone. Even when CT-DNA was added in large excess to the solution of porphyrin, a redshift of only […] was observed."}}, "data": [{"substance": "Mn(III) 2-tetrakis(carboxamide)pyridyl porphyrin [Mn 2-T(CX)PyP]", "values": [{"measurement": "appearance of linear form of DNA (Form III)", "setting": "plasmid pBR322", "result": "does not appear at all"}]}, {"substance": "Mn(III) 4-tetrakis(carboxamide)pyridyl porphyrin [Mn 4-T(CX)PyP]", "values": [{"measurement": "degree of plasmid cleavage", "setting": "plasmid pBR322", "result": "greatest degree of plasmid cleavage"}]}, {"substance": "4-Tetrakis(carboxamide)pyridyl Porphyrin [4-T(CX)PyP]", "values": [{"measurement": "redshift of Soret band (Δλmax)", "setting": "calf thymus DNA (CT-DNA); 5 μM porphyrin, 10 mM tris + 1 mM EDTA pH=8.0", "result": 12, "unit": "nm"}, {"measurement": "binding constant to DNA", "setting": "calf thymus DNA (CT-DNA); calculated from the titration", "result": "7.99×10^6"}, {"measurement": "association with DNA (in words)", "setting": "calf thymus DNA (CT-DNA); from change in Soret band", "result": "both porphyrin intercalation into DNA and outside stacking of porphyrin along the DNA backbone"}]}, {"substance": "Mn(III) 2-tetrakis(triethylene glycol monomethyl ether)pyridyl porphyrin [Mn 2-T(PEG3)PyP]", "values": [{"measurement": "appearance of linear form of DNA (Form III)", "setting": "plasmid pBR322", "result": "does not appear at all"}]}]}
